According to patent publication US20260022142A1, “MACROCYCLIC IMMUNOMODULATORS” (Bristol-Myers Squibb Company, priority 2022, published 2026):
Bridge positions count the residues as written; N and C are the ends. Square brackets hold non-standard residues; d marks the D form. Peptide text beside a SMILES is read from it. * marks the point of attachment. ξ: configuration not given here. Phe(4-CONH2) = NC(=O)c1ccc(C[C@H](N)C(=O)O)cc1; Phe(4-COOH) = N[C@@H](Cc1ccc(C(=O)O)cc1)C(=O)O; Bip = N[C@@H](Cc1ccc(-c2ccccc2)cc1)C(=O)O; Phe(4-CN) = N#Cc1ccc(C[C@H](N)C(=O)O)cc1; Phe(3-Me) = Cc1cccc(C[C@H](N)C(=O)O)c1; Val(3-OH) = CC(C)(O)[C@H](N)C(=O)O; 4Pal = N[C@@H](Cc1ccncc1)C(=O)O; Cha = N[C@@H](CC1CCCCC1)C(=O)O; Thr(3ξ) = CC(O)[C@H](N)C(=O)O; Carboxymethyl = O=C(O)C*; Orn = NCCC[C@H](N)C(=O)O; Aun = NCCCCCCCCCCC(=O)O; Dab = NCC[C@H](N)C(=O)O; Abu = CC[C@H](N)C(=O)O; AEEA = NCCOCCOCC(=O)O

Target: T1, PD-1/PD-L1 interaction (PE-labeled human PD-L1-Ig binding to Jurkat cell line over-expressing human PD-1) (Homo sapiens, UniProt Q15116)
T1 construct: expressed in transfected cells; host or cells: Jurkat
T1 sequence (Q15116 25-288): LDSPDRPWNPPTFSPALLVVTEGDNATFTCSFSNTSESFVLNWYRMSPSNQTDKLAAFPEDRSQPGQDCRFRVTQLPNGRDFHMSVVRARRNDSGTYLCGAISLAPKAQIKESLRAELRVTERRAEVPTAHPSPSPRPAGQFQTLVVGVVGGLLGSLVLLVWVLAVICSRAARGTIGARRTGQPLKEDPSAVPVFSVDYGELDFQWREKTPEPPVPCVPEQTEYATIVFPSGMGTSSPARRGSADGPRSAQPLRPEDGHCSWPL
Assay: Jurkat-PD-1 Cell Binding High-Content Screening Assay (CBA)
Format: cell-based
Details: Jurkat cell line over-expressing human PD-1; PE-labeled PD-L1-Ig 20 nM final; read-out: Jurkat hPD1-PDL1 IC50
In short: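 Jurkat-hPD-1 cells, DMEM/10% FCS; cpd 2 h 37° C; PE-PD-L1-Ig 20 nM final, 1 h; 4% PFA fix + Hoechst 33342, 3× dPBS wash; high-content imaging read-out.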

**Q.** `Cc1cccc(C[C@@H]2NC(=O)[C@H](CC(=O)O)NC(=O)[C@H](Cc3ccc(C(=O)O)cc3)NC(=O)[C@H](C(C)O)NC(=O)CSC[C@@H](C(=O)N[C@@H](CCN)C(=O)NCCOCCOCC(=O)NCCOCCOCC(=O)NCCCCCCCCCCC(=O)O)NC(=O)[C@H](CO)NC(=O)[C@H](C(C)O)NC(=O)[C@H](CC3CCCCC3)NC(=O)[C@H](CCN)NC(=O)[C@@H](CC(C)C)NC(=O)[C@H](CCCN)NC(=O)[C@H](Cc3ccc(C(=O)O)cc3)NC(=O)[C@H](Cc3ccc(-c4ccccc4)cc3)NC(=O)[C@H](Cc3ccc(C(=O)O)cc3)NC2=O)c1` (stereo partly drawn) [Compound 3775] ({CH2CO}-[Thr(3ξ)][Phe(4-COOH)]D[Phe(3-Me)][Phe(4-COOH)][Bip][Phe(4-COOH)][Orn][dL][Dab][Cha][Thr(3ξ)]SC[Dab][AEEA][AEEA][Aun]-OH; thioether N-14) was tested. Which IC50 did it give?
**A.** 5.8 nM

**Q.** Which IC50 does the source give for `Cc1cccc(C[C@@H]2NC(=O)[C@H](CC(=O)O)NC(=O)[C@H](Cc3ccc(C#N)cc3)NC(=O)[C@H](C(C)O)NC(=O)CSC[C@@H](C(=O)N[C@@H](CCN)C(=O)NCCOCCOCC(=O)NCCCCCCCCCCC(=O)O)NC(=O)[C@H](Cc3cnc[nH]3)NC(=O)[C@H](C(C)(C)O)NC(=O)[C@H](CC3CCCCC3)NC(=O)[C@H](CCN)NC(=O)[C@@H](CC(C)C)NC(=O)[C@H](CCCN)NC(=O)[C@H](Cc3ccc(OCC(=O)O)cc3)NC(=O)[C@H](Cc3ccc(-c4ccccc4)cc3)NC(=O)[C@H](Cc3ccc(OCC(=O)O)cc3)NC2=O)c1` (stereo partly drawn) [Compound 3776] ({CH2CO}-[Thr(3ξ)][Phe(4-CN)]D[Phe(3-Me)]Y(Carboxymethyl)[Bip]Y(Carboxymethyl)[Orn][dL][Dab][Cha][Val(3-OH)]HC[Dab][AEEA][Aun]-OH; thioether N-14) here?
**A.** 3.6 nM

**Q.** How did the IC50 turn out when `Cc1cccc(C[C@@H]2NC(=O)[C@H](CC(=O)O)NC(=O)[C@H](Cc3ccc(C(=O)O)cc3)NC(=O)[C@H](C(C)O)NC(=O)CSC[C@@H](C(=O)N[C@@H](CCN)C(=O)NCCOCCOCC(=O)NCCOCCOCC(=O)NCCCCCCCCCCC(=O)O)NC(=O)[C@H](CO)NC(=O)[C@H](C(C)(C)O)NC(=O)[C@H](CC3CCCCC3)NC(=O)[C@H](CCN)NC(=O)[C@@H](CC(C)C)NC(=O)[C@H](CCCN)NC(=O)[C@H](Cc3ccc(C(=O)O)cc3)NC(=O)[C@H](Cc3ccc(-c4ccccc4)cc3)NC(=O)[C@H](Cc3ccc(C(=O)O)cc3)NC2=O)c1` (stereo partly drawn) [Compound 3777] ({CH2CO}-[Thr(3ξ)][Phe(4-COOH)]D[Phe(3-Me)][Phe(4-COOH)][Bip][Phe(4-COOH)][Orn][dL][Dab][Cha][Val(3-OH)]SC[Dab][AEEA][AEEA][Aun]-OH; thioether N-14) was run?
**A.** 3.4 nM

**Q.** With `Cc1cccc(C[C@@H]2NC(=O)[C@H](CC(=O)O)NC(=O)[C@H](Cc3ccc(C(=O)O)cc3)NC(=O)[C@H](Cc3ccncc3)NC(=O)CSC[C@@H](C(=O)N[C@@H](CCN)C(=O)NCCOCCOCC(=O)NCCCCCCCCCCC(=O)O)NC(=O)[C@H](CO)NC(=O)[C@H](C(C)(C)O)NC(=O)[C@H](CC3CCCCC3)NC(=O)[C@H](CCN)NC(=O)[C@@H](CC(C)C)NC(=O)[C@H](CCCN)NC(=O)[C@H](CCC(N)=O)NC(=O)[C@H](Cc3ccc(-c4ccccc4)cc3)NC(=O)[C@H](Cc3ccc(C(N)=O)cc3)NC2=O)c1` [Compound 3778] ({CH2CO}-[4Pal][Phe(4-COOH)]D[Phe(3-Me)][Phe(4-CONH2)][Bip]Q[Orn][dL][Dab][Cha][Val(3-OH)]SC[Dab][AEEA][Aun]-OH; thioether N-14) as the molecule, how does the IC50 read?
**A.** 26.6 nM

**Q.** How did the IC50 turn out when `CC[C@@H]1NC(=O)CSC[C@@H](C(=O)N[C@@H](CCN)C(=O)NCCCCCCCCCCC(=O)O)NC(=O)[C@H](CCC(=O)O)NC(=O)[C@H](C(C)(C)O)NC(=O)[C@H](CC2CCCCC2)NC(=O)[C@H](CCN)NC(=O)[C@@H](CC(C)C)NC(=O)[C@H](CCCN)NC(=O)[C@H](Cc2ccc(OCC(=O)O)cc2)NC(=O)[C@H](Cc2ccc(-c3ccccc3)cc2)NC(=O)[C@H](Cc2ccc(OCC(=O)O)cc2)NC(=O)[C@H](Cc2cccc(C)c2)NC(=O)[C@H](CC(=O)O)NC(=O)[C@H](Cc2ccc(OCC(=O)O)cc2)NC1=O` [Compound 3794] ({CH2CO}-[Abu]Y(Carboxymethyl)D[Phe(3-Me)]Y(Carboxymethyl)[Bip]Y(Carboxymethyl)[Orn][dL][Dab][Cha][Val(3-OH)]EC[Dab][Aun]-OH; thioether N-14) was run?
**A.** 3.8 nM
